In US20220324835A1 (Nurix Therapeutics, Inc., priority 2018, published 2022):
pIC50: −log10 of the molar value.

Legend:
Cbl-b [1] = biological target: T1, Cbl-b (Homo sapiens, UniProt Q13191); assay: Cbl-b inhibition assay (Cbl-b activity assay, FRET, Biological Example 1; 100 mM NaCl, 60 nM Src kinase); assay type: biochemical; conditions: upper bound stated in text lists; read-out: IC50 values in the Cbl-b inhibition assay of Biological Example 1
In short: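 FRET read-out: loss of signal marks inhibition. Mix = biotin-Avi-Cbl-b (N-term), Src kinase, UbcH5B-Ub(Bodipy-FL, irreversible conjugate), streptavidin-Tb, assay buffer.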

Cbl-b [2] = biological target: T1, Cbl-b; assay: Cbl-b activity assay (Cbl-b inhibition assay), TR-FRET of Cbl-b interaction with UbcH5B-Ub; assay type: biochemical; conditions: assay buffer with 100 mM NaCl, 60 nM Src kinase; read-out: Cbl-b activity IC50
In short: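 UbcH5B (C85K) conjugated to N-terminally Bodipy-Fluorescein-labeled ubiquitin served as the fluorescent partner. After compound preincubation, Src kinase (60 nM) with 1 mM ATP and 5 mM MgCl2 (final) was added for 1.5 h, followed by a further 1 h incubation. Some values were obtained with 50 mM NaCl and 30 nM Src.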

T-cell [3] = assay: IL-2 secretion from T-cells co-stimulated with anti-CD3 and anti-CD28 antibody (Biological Example 2); assay type: cell-based, human; conditions: Homo sapiens, T-cell, primary human total T-cells, baseline = anti-CD3/anti-CD28 stimulated cells without inhibitor, read-out: IL-2 secretion, Anti-CD3/Anti-CD28 stimulation, fold change over baseline; for fold induction at 0.3 µM: 0.3 μM compound; for fold induction at 1 µM: 1 μM compound; for fold induction at 4 µM: 4 μM compound
In short: (§1)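 T-cells were stimulated with anti-CD3 antibody alone or with anti-CD28 antibody, in the presence or absence of Cbl-b inhibitor. IL-2 secretion or CD25 surface staining was measured, and values expressed as fold over the uninhibited baseline […].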

T-cell [4] = assay: CD25 cell surface staining on T-cells co-stimulated with anti-CD3 and anti-CD28 antibody (Biological Example 2); assay type: cell-based, human; conditions: Homo sapiens, T-cell, primary human total T-cells, baseline = anti-CD3/anti-CD28 stimulated cells without inhibitor, read-out: CD25 staining, Anti-CD3/Anti-CD28 stimulation, fold change over baseline; for fold induction at 0.3 µM: 0.3 μM compound; for fold induction at 1 µM: 1 μM compound; for fold induction at 4 µM: 4 μM compound
In short: as §1

T-cell [5] = assay: CD25 cell surface staining on T-cells stimulated with anti-CD3 antibody alone (Biological Example 2); assay type: cell-based; conditions: primary human total T-cells, baseline = anti-CD3/anti-CD28 stimulated cells without inhibitor, read-out: CD25 staining, Anti-CD3 stimulation, fold change over baseline; for fold induction at 1 µM: 1 μM compound; for fold induction at 8 µM: 8 μM compound
T-cell [6] = assay: IL-2 secretion from T-cells stimulated with anti-CD3 antibody alone (Biological Example 2); assay type: cell-based; conditions: primary human total T-cells, read-out: IL-2 secretion, Anti-CD3 stimulation, fold change over baseline; for fold induction at 1 µM: 1 μM compound; for fold induction at 8 µM: 8 μM compound

T1 sequence (Q13191 36-427): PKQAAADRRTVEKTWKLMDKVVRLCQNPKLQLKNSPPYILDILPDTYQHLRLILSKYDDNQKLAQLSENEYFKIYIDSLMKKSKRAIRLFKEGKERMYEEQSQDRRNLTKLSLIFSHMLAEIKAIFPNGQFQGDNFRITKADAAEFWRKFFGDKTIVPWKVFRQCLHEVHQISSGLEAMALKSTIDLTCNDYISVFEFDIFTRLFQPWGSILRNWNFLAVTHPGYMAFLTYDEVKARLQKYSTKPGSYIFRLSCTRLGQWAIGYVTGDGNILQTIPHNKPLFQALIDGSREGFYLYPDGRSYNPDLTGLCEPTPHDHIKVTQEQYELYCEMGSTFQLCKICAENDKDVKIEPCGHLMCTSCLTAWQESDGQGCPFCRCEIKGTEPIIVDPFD

SMILES | pIC50 (Cbl-b [1]) | pIC50 (Cbl-b [2]) | fold induction at 0.3 µM (T-cell [3]) | fold induction at 1 µM (T-cell [3]) | fold induction at 0.3 µM (T-cell [4]) | fold induction at 1 µM (T-cell [4]) | fold induction at 1 µM (T-cell [5]) | fold induction at 1 µM (T-cell [6]) | fold induction at 4 µM (T-cell [3]) | fold induction at 4 µM (T-cell [4]) | fold induction at 8 µM (T-cell [5]) | fold induction at 8 µM (T-cell [6])
Cn1cnnc1CC1(c2cccc(N3Cc4c(cc(CN5CCC(C)(F)C5)cc4C(F)(F)F)C3=O)c2)COC1 (centres unmarked) [Compound 435, 6-((3-fluoro-3-methylpyrrolidin-1-yl)methyl)-2-(3-(3-((4-methyl-4H-1,2,4-triazol-3-yl)methyl)oxetan-3-yl)phenyl)-4-(trifluoromethyl)isoindolin-1-one] | ≥ 7.00 | > 7.00 | > 7.5 | > 7.5 | 1.31 to 1.5 | 1.31 to 1.5 | > 1 | > 0.201 | – | – | – | –
Cn1cnnc1CC1(c2cccc(N3Cc4c(cc(CO)cc4C(F)(F)F)C3=O)c2)COC1 [Compound 437, 6-(hydroxymethyl)-2-(3-(3-((4-methyl-4H-1,2,4-triazol-3-yl)methyl)oxetan-3-yl)phenyl)-4-(trifluoromethyl)isoindolin-1-one] | ≥ 7.00 | > 7.00 | 2.51 to 5 | 5 to 7.5 | 1.01 to 1.3 | 1.31 to 1.5 | 0.601 to 0.8 | 0.101 to 0.15 | > 7.5 | 1.51 to 1.75 | 0.601 to 0.8 | 0.051 to 0.1
Cn1cnnc1C(F)(F)[C@](C)(F)c1cccc(N2Cc3c(cc(-c4cncc(F)c4)cc3C(F)(F)F)C2=O)c1 [Compound 440, (R)-6-(5-fluoropyridin-3-yl)-2-(3-(1,1,2-trifluoro-1-(4-methyl-4H-1,2,4-triazol-3-yl)propan-2-yl)phenyl)-4-(trifluoromethyl)isoindolin-1-one] | ≥ 6.52 | 6.52 to 7.00 | 1.01 to 2.5 | 2.51 to 5 | < 1 | 1.01 to 1.3 | 0.601 to 0.8 | 0.101 to 0.15 | 2.51 to 5 | 1.01 to 1.3 | 0.801 to 1 | 0.151 to 0.2
CN1CCN(c2cc3c(c(C(F)(F)F)c2)CN(c2cccc([C@@](C)(F)C(F)(F)c4nncn4C)c2)C3=O)CC1 [Compound 441, (R)-6-(4-Methylpiperazin-1-yl)-2-(3-(1,1,2-trifluoro-1-(4-methyl-4H-1,2,4-triazol-3-yl)propan-2-yl)phenyl)-4-(trifluoromethyl)isoindolin-1-one] | ≥ 6.52 | 6.52 to 7.00 | 1.01 to 2.5 | 1.01 to 2.5 | 1.01 to 1.3 | 1.01 to 1.3 | 0.601 to 0.8 | 0.051 to 0.1 | 2.51 to 5 | 1.01 to 1.3 | > 1 | 0.151 to 0.2
C[C@@H]1CN(C)CCN1c1cc2c(c(C(F)(F)F)c1)CN(c1cccc([C@@](C)(F)C(F)(F)c3nncn3C)c1)C2=O [Compound 443, 6-((R)-2,4-Dimethylpiperazin-1-yl)-2-(3-((R)-1,1,2-trifluoro-1-(4-methyl-4H-1,2,4-triazol-3-yl)propan-2-yl)phenyl)-4-(trifluoromethyl)isoindolin-1-one] | ≥ 7.00 | > 7.00 | 1.01 to 2.5 | 1.01 to 2.5 | 1.01 to 1.3 | 1.01 to 1.3 | 0.801 to 1 | < 0.05 | 2.51 to 5 | 1.31 to 1.5 | > 1 | 0.101 to 0.15
C[C@H]1CN(C)CCN1c1cc2c(c(C(F)(F)F)c1)CN(c1cccc([C@@](C)(F)C(F)(F)c3nncn3C)c1)C2=O [Compound 444, 6-((S)-2,4-Dimethylpiperazin-1-yl)-2-(3-((R)-1,1,2-trifluoro-1-(4-methyl-4H-1,2,4-triazol-3-yl)propan-2-yl)phenyl)-4-(trifluoromethyl)isoindolin-1-one] | ≥ 7.00 | > 7.00 | 1.01 to 2.5 | 5 to 7.5 | 1.01 to 1.3 | 1.01 to 1.3 | > 1 | 0.101 to 0.15 | > 7.5 | 1.31 to 1.5 | > 1 | > 0.201
CN1CC2CCC(C1)N2c1cc2c(c(C(F)(F)F)c1)CN(c1cccc([C@@](C)(F)C(F)(F)c3nncn3C)c1)C2=O [Compound 445, 6-(3-Methyl-3,8-diazabicyclo[3.2.1]octan-8-yl)-2-(3-((R)-1,1,2-trifluoro-1-(4-methyl-4H-1,2,4-triazol-3-yl)propan-2-yl)phenyl)-4-(trifluoromethyl)isoindolin-1-one] | ≥ 7.00 | > 7.00 | 5 to 7.5 | > 7.5 | 1.31 to 1.5 | 1.51 to 1.75 | > 1 | > 0.201 | > 7.5 | 1.51 to 1.75 | > 1 | > 0.201
Cn1cnnc1C(F)(F)[C@](C)(F)c1cccc(N2Cc3c(cc(CN4CC(C(F)F)C4)cc3C(F)(F)F)C2=O)c1 [Compound 453, (R)-6-((3-(difluoromethyl)azetidin-1-yl)methyl)-2-(3-(1,1,2-trifluoro-1-(4-methyl-4H-1,2,4-triazol-3-yl)propan-2-yl)phenyl)-4-(trifluoromethyl)isoindolin-1-one] | ≥ 7.00 | > 7.00 | 5 to 7.5 | > 7.5 | 1.31 to 1.5 | 1.31 to 1.5 | > 1 | > 0.201 | > 7.5 | 1.31 to 1.5 | > 1 | 0.151 to 0.2
Cn1cnnc1C(F)(F)[C@](C)(F)c1cccc(N2Cc3c(cc(CN4CC[C@H](C#N)C4)cc3C(F)(F)F)C2=O)c1 [Compound 454, (S)-1-((3-oxo-2-(3-((R)-1,1,2-trifluoro-1-(4-methyl-4H-1,2,4-triazol-3-yl)propan-2-yl)phenyl)-7-(trifluoromethyl)isoindolin-5-yl)methyl)pyrrolidine-3-carbonitrile] | ≥ 7.00 | > 7.00 | 5 to 7.5 | > 7.5 | 1.01 to 1.3 | 1.31 to 1.5 | > 1 | > 0.201 | > 7.5 | 1.31 to 1.5 | > 1 | > 0.201
Cn1cnnc1C(F)(F)[C@](C)(F)c1cccc(N2Cc3c(cc(CN4CC(C#N)C4)cc3C(F)(F)F)C2=O)c1 [Compound 456, (R)-1-((3-oxo-2-(3-(1,1,2-trifluoro-1-(4-methyl-4H-1,2,4-triazol-3-yl)propan-2-yl)phenyl)-7-(trifluoromethyl)isoindolin-5-yl)methyl)azetidine-3-carbonitrile] | ≥ 6.52 | 6.52 to 7.00 | 1.01 to 2.5 | 2.51 to 5 | 1.01 to 1.3 | 1.01 to 1.3 | 0.801 to 1 | 0.051 to 0.1 | 5 to 7.5 | 1.01 to 1.3 | > 1 | 0.101 to 0.15
